Experimental data reported in ChEMBL document CHEMBL1151432, “Increased susceptibility to colistin in hypermutable Pseudomonas aeruginosa strains from chronic respiratory infections” (Antimicrob Agents Chemother, 2007).

Columns and labels:
Assay type in all cases: functional, organism-based
Pseudomonas aeruginosa [1] = test: Antimicrobial activity against Pseudomonas aeruginosa ATCC 27853 by Etest method
Pseudomonas aeruginosa [2] = test: Antimicrobial activity against non-hypermutable Pseudomonas aeruginosa isolated from intensive care unit patients with chronic respiratory infection by Etest method
Pseudomonas aeruginosa [3] = test: Antimicrobial activity against hypermutable Pseudomonas aeruginosa isolated from patients with chronic respiratory infection by Etest method
Pseudomonas aeruginosa [4] = test: Antimicrobial activity against non-hypermutable Pseudomonas aeruginosa isolated from patients with chronic respiratory infection by Etest method
Pseudomonas aeruginosa [5] = test: Antimicrobial activity against Pseudomonas aeruginosa PAO1 by Etest method
Pseudomonas aeruginosa [6] = test: Antimicrobial activity against mutS-deficient Pseudomonas aeruginosa PAO1 by Etest method

COLISTIN
MIC (Pseudomonas aeruginosa [1]): 1 µg/mL | MIC (Pseudomonas aeruginosa [2]): 2 µg/mL | MIC (Pseudomonas aeruginosa [3]): 0.48 µg/mL | MIC (Pseudomonas aeruginosa [4]): 0.92 µg/mL | MIC (Pseudomonas aeruginosa [5]): 2 µg/mL | MIC (Pseudomonas aeruginosa [6]): 2 µg/mL
